Values quoted from earlier work in patent publication US20180271827A1, “CANNABINOID COMPOSITIONS AND METHODS OF MAKING” (Pasenture, Inc., priority 2015, published 2018).
“Also recorded” adds a separate entry of the source. Where two headings read alike, the source gives them in different places.

Conditions: properties or predicted properties
[1] = Table A, representative terpenes
[2] = Table B, representative cannabinoids
[3] = Table C, flavonoid and phytosterol components derived from cannabis plants

SMILES | Properties [1] | Properties [2] | also measured
C=CC(C)(O)CCC=C(C)C (stereo not drawn) [linalool] | Sedative, Antidepressant, Anxiolytic, Immune; also recorded: potentiator |  | 
CCCCCc1cc(O)c2c(c1)OC(C)(CCC=C(C)C)C=C2 (stereo not drawn) [cannabichromene (CBC), cannabichromene] |  | Antiinflammatory, Antibiotic,; also recorded: Antifungal | 
O=c1c(O)c(-c2ccc(O)c(O)c2)oc2cc(O)cc(O)c12 [quercetin] |  |  | Properties [3]: Antioxidant, Antimutagenic, Antiviral,; also recorded: Antineoplastic
CCCc1cc(O)c2c(c1)OC(C)(C)[C@@H]1CCC(C)=C[C@@H]21 [tetrahydrocannabivarin (THCV), tetrahydrocannabivarin] |  | Analgesic, Euphoriant | 
O=c1cc(-c2ccc(O)cc2)oc2cc(O)cc(O)c12 [apigenin] |  |  | Properties [3]: Anxiolytic, Antiinflammatory, Estrogenic
CCCCCc1cc(O)c(C/C=C(\C)CCC=C(C)C)c(O)c1 [cannabigerol (CBG), cannabigerol] |  | Antiinflammatory, Antibiotic,; also recorded: Antifungal | 
C=C(C)[C@H]1CC=C(C)CC1 [d-limonene] | Antidepressant, Antimutagenic |  | 
CCCCCc1cc(O)c2c(c1)OC(C)(C)[C@@H]1CCC(C)=C[C@@H]21 [9-tetrahydrocannabinol (THC), 9-tetrahydrocannabinol, reference compound] |  | Euphoriant, Analgesic,; also recorded: Antiinflammatory, Antioxidant,; also recorded: Antiemetic | 
CC1=CC[C@@H](C(C)(C)O)CC1 [a-terpineol] | Sedative, Antibiotic, AChE inhibitor, Antioxidant,; also recorded: Antimalarial |  | 
C=CC(=C)CCC=C(C)C [ß-myrcene] | Analgesic. Antiinflammatory, Antibiotic,; also recorded: Antimutagenic |  | 
C=C(C)[C@@H]1CCC(C)=C[C@H]1c1c(O)cc(CCCCC)cc1O [cannabidiol (CBD), cannabidiol, reference compound] |  | Antispasmodic; also recorded: Anxiolytic, Analgesic, Antipsychotic,; also recorded: Antiinflammatory, Antioxidant, | 
CCCCCc1cc(O)c2c(c1)OC(C)(C)c1ccc(C)cc1-2 [Cannabinol (CBN), Cannabinol] |  | Oxidation, breakdown, product,; also recorded: Sedative, Antibiotic | 
CC12CCC(CC1)C(C)(C)O2 [1,8-cineole (eucalyptol), 1,8-cineole] | AChE inhibitor, Increases cerebral, blood flow,; also recorded: Stimulant, Antibiotic, Antiviral, Antiinflammatory,; also recorded: Antinociceptive |  | 
CC[C@H](CC[C@@H](C)[C@H]1CC[C@H]2[C@@H]3CC=C4C[C@@H](O)CC[C@]4(C)[C@H]3CC[C@]12C)C(C)C [ß-sitosterol] |  |  | Properties [3]: Antiinflammatory, 5-a-reductase, inhibitor
COc1cc(-c2cc(=O)c3c(O)c(C/C=C(\C)CCC=C(C)C)c(O)cc3o2)ccc1O [cannflavin A] |  |  | Properties [3]: COX inhibitor, LO inhibitor
CC1=CCC2CC1C2(C)C (stereo not drawn) [a-pinene] | Antiinflammatory, Bronchodilator, Stimulant,; also recorded: Antibiotic, Antineoplastic, AChE inhibitor |  | 
CC1=CCC(O)(C(C)C)CC1 (stereo not drawn) [terpineol-4-ol] | AChE inhibitor, Antibiotic |  | 
C=C1CC/C=C(/C)CC[C@@H]2[C@@H]1CC2(C)C [ß-caryophyllene] | Antiinflammatory, Cytoprotective (gastric mucosa),; also recorded: Antimalarial |  | 
CCCCCc1cc(O)c2c(c1)OC(C)(C)[C@@H]1CC=C(C)C[C@@H]21 [?-8-tetrahydrocannabinol (?-8-THC), ?-8-tetrahydrocannabinol] |  | Resembles ?-9-THC, Less psychoactive,; also recorded: More stable Antiemetic | 
CC(C)=C1CC[C@@H](C)CC1=O [pulegone] | Antipyretic |  | 
Cc1ccc(C(C)C)cc1 [p-cymene] | Antibiotic, Anticandidal, AChE inhibitor |  | 
